Read-outs that look alike come from different tables or passages of the source.
Columns and labels:
[1] = system: single replication cycle recombinant virus containing the protease and reverse transcriptase coding regions of HIV-1 from a patient blood sample; assay type: cell-based; details: for mean fold change in susceptibility: mean over the resistant panel of Table 2
Text: Resistance testing was done by Monogram Biosciences using their proprietary PhenoSense HIV assay. This assay evaluates drug susceptibility by using a single replication cycle recombinant virus containing the protease (amino acids 1-99 plus p7/p1/p6 gag cleavage sites) and reverse transcriptase (amino acids 1-304) coding regions of HIV-1 from a patient blood sample.

in vitro = details: human, microsomes
Method: Liver Microsomal Stability Protocol
Test compounds and one control compound (verapamil) were tested in 3 different species in duplicate sets.
Reaction composition (in each incubation well) contains:
After plates were vortexed, they were centrifuged for 30 minutes to remove proteins. About 100 μL supernatant was removed to a new plate and diluted with 150 μL water. About 20 μL of the mixture was injected into LC/MS/MS system to monitor the compound's response. In vitro measured t1/2 was used to calculate Clint values.

recombinant HIV protease = molecular target: T1, recombinant HIV protease (Human immunodeficiency virus type 1 group M subtype B, UniProt P04585); assay: HIV Protease Enzyme Inhibition (PI) Activity, fluorogenic enzymatic assay; assay type: biochemical
T1 construct: recombinant HIV protease
Method: HIV Protease Enzyme Inhibition (PI) Activity
Inhibitor potency against HIV protease can be measured using an enzymatic assay with a fluorogenic readout. To a reaction buffer containing 100 mM ammonium acetate at pH 5.3, 100 mM NaCl, 1 mM EDTA, 1 mM DTT, 0.25 mg/mL BSA and 1% DMSO are added 10 nM of recombinant HIV protease (concentration based on protein monomer) and test compound at one of various concentrations. After a 10-minute pre-incubation, the enzymatic reaction is initiated by the addition of the fluorogenic substrate (2-aminobenzoyl)Thr-Ile-Nle-(p-nitro)Phe-Gln-Arg (Bachem; Product No. H-2992) (SEQ ID NO: 1) to a final concentration of 40 μM. The total volume of the assay solution is 100 μL. The reaction is measured over 10 minutes on a Tecan Infinite M1000 plate reader using an excitation wavelength of 320 nm and a detection wavelength of 420 nm. The slopes of the progress curves are the measure of reaction rates. Reaction rates are plotted as a function of inhibitor concentration, and the data are fit with a four-parameter logistic fit using Graphpad PRISM software to yield IC50 values.

[2] = system: HIV-1 (IIIB) in MT-4 cells; assay: MT-4 HIV High Resolution Antiviral Assay; assay type: cell-based; details: EC95=(19)^1/hill coefficient x EC50
Method: (§1) Compounds were tested in a high-throughput 384-well assay format for their ability to inhibit the replication of HIV-1 (IIIB) in MT-4 cells. Compounds were serially diluted (1:3) in DMSO on 384-well polypropylene plates and further diluted 200-fold into complete RPMI media (10% FBS, 1% P/S) using the Biotek Micro Flow and Agilent ECHO acoustic dispenser. Each plate contained up to 8 test compounds, with negative (No Drug Control) and 5 uM AZT positive controls. MT-4 cells were pre-infected with 10 uL of either RPMI (mock-infected) or a fresh 1:250 dilution of an HIV-1 (IIIB) concentrated virus stock. Infected and uninfected MT-4 cells were further diluted in complete RPMI media and added to each plate using a Micro Flow dispenser. After 5 days incubation in a humidified and temperature controlled incubator (37° C.), Cell Titer Glo (Promega) was added to the assay plates to quantify the amount of luciferase.

[3] = system: HIV-1 (IIIB) in MT-4 cells; assay: MT-4 HIV Assay (inhibition of HIV-1 replication, Cell Titer Glo readout); assay type: cell-based; details: Human immunodeficiency virus 1, MT4, 120 h, 5 days incubation
Method: as §1

[4] = Resistance mutations D30N L33F N88D L90M
[5] = Resistance mutations L10F L33F M46I I50V V82A N88D L89V
[6] = Resistance mutations L10F M46I I47V I50V I54V G73S I84V L90M
[7] = Resistance mutations L10F M46L I54V V82A 184V
[8] = Resistance mutations L10F V32I M46I I47V I50V I54L I84V
[9] = Resistance mutations L10F/L D30N I54V N88D L90M
[10] = Resistance mutations L10F/L D30N L33F I54L N88D L90M
[11] = Resistance mutations L10I I50 V82A L90M
[12] = Resistance mutations L10I L33F G48V I50L I54V/I V82A
[13] = Resistance mutations L10I L33F M46I I54V V82A I84V
[14] = Resistance mutations L10I L33F M46L G48V I54M V82A I84V L90M
[15] = Resistance mutations L10I L33F/L G48V G73S V82A
[16] = Resistance mutations L10I M46I G48V I50V V82A L90M
[17] = Resistance mutations L10I M46I I50V
[18] = Resistance mutations L10I M46L I54V V82A
[19] = Resistance mutations L10I M46L I54V V82F L90M
[20] = Resistance mutations L10I V32I L33F M46L I54L I84V L89V
[21] = Resistance mutations L10I V32I M46I I47V G48V I54M V82T L90M
[22] = Resistance mutations L10I V32I M46I I47V I50V I54L L90M
[23] = Resistance mutations L10V L33F I50L L90M
[24] = Resistance mutations L10V L33F M46I I54V V82A I84V L90M/L
[25] = Resistance mutations L10V/L M46I I50L V82A
[26] = Resistance mutations L33F M46I I50V L76V
[27] = Resistance mutations M46I L76V I84V
[28] = 10 nM recombinant HIV protease, pH 5.3, 40 μM fluorogenic substrate, read-out: HIV PI IC50

Structure (SMILES): COC(=O)N[C@H](C(=O)N[C@@H](Cc1ccccc1)[C@@H](O)CN(Cc1ccc(-c2ccccn2)cc1)NC(=O)[C@@H](NC(=O)OC)C(C)(C)C)C(C)(C)C [Atazanavir, methyl N-[(2S)-1-[2-[(2S,3S)-2-hydroxy-3-[[(2S)-2-(methoxycarbonylamino)-3,3-dimethylbutanoyl]amino]-4-phenylbutyl]-2-[(4-pyridin-2-ylphenyl)methyl]hydrazinyl]-3,3-dimethyl-1-oxobutan-2-yl]carbamate, reference compound]
- Fold Change in EC50 [1, 4]: 4.68
- Fold Change in EC50 [1, 5]: 1.25
- Fold Change in EC50 [1, 6]: 19
- Fold Change in EC50 [1, 7]: 73
- Fold Change in EC50 [1, 8]: 5.44
- Fold Change in EC50 [1, 9]: 29
- Fold Change in EC50 [1, 10]: 15
- Fold Change in EC50 [1, 11]: 33
- Fold Change in EC50 [1, 12]: 70
- Fold Change in EC50 [1, 13]: 44
- Fold Change in EC50 [1, 14]: 70
- Fold Change in EC50 [1, 15]: >91
- Fold Change in EC50 [1, 16]: 39
- Fold Change in EC50 [1, 17]: 2.39
- Fold Change in EC50 [1, 18]: 9.73
- Fold Change in EC50 [1, 19]: 24
- Fold Change in EC50 [1, 20]: 89
- Fold Change in EC50 [1, 21]: 9.49
- Fold Change in EC50 [1, 22]: 25
- Fold Change in EC50 [1, 23]: >91
- Fold Change in EC50 [1, 24]: 9.69
- Fold Change in EC50 [1, 25]: 69
- Fold Change in EC50 [1, 26]: 1.84
- Fold Change in EC50 [1, 27]: 1.36
- mean fold change in susceptibility [1]: 17.7
- half-life at 1 μM (in vitro): 0.433 to 1.78 h

Structure (SMILES): CC(C)(C[C@]1(c2ccc(-c3ccc(S(C)(=O)=O)cc3)cc2)NC(=N)N([C@H](COC(=O)NC2(C(F)F)CC2)c2ccc(Cl)c(-c3ncnn3C(F)F)c2)C1=O)C(F)(F)F [Compound 1, (S)-2-(4-chloro-3-(1-(difluoromethyl)-1H-1,2,4-triazol-5-yl)phenyl)-2-((R)-2-imino-4-(4′-(methylsulfonyl)-[1,1′-biphenyl]-4-yl)-5-oxo-4-(3,3,3-trifluoro-2,2-dimethylpropyl)imidazolidin-1-yl)ethyl (1-(difluoromethyl)cyclopropyl)carbamate]
- IC50 (recombinant HIV protease; [28]): 1.8 nM
- EC95 [2]: 24.9 nM
- EC50 [3]: 13.2 nM

Structure (SMILES): CC(C)(C[C@]1(c2ccc(-c3cccc(S(C)(=O)=O)c3)cc2)NC(=N)N([C@H](COC(=O)NC2(C(F)F)CC2)c2ccc(Cl)c(-c3ncnn3C(F)F)c2)C1=O)C(F)(F)F [Compound 2]
- IC50 (recombinant HIV protease; [28]): 2.9 nM
- EC50 [3]: 27.5 nM

Structure (SMILES): CC(C)(C[C@]1(c2ccc(-c3ccc(S(C)(=O)=O)c(F)c3)cc2)NC(=N)N([C@H](COC(=O)NC2(C(F)F)CC2)c2ccc(Cl)c(-c3ncnn3C(F)F)c2)C1=O)C(F)(F)F [Compound 3]
- IC50 (recombinant HIV protease; [28]): 2.9 nM
- EC50 [3]: 11.1 nM

Structure (SMILES): CC(C)(C[C@]1(c2ccc(-c3ccc(S(C)(=O)=O)cc3F)cc2)NC(=N)N([C@H](COC(=O)NC2(C(F)F)CC2)c2ccc(Cl)c(-c3ncnn3C(F)F)c2)C1=O)C(F)(F)F [Compound 4]
- IC50 (recombinant HIV protease; [28]): 2.4 nM
- EC50 [3]: 11.3 nM

Structure (SMILES): CC(C)(C[C@]1(c2ccc(-c3ccc(F)cc3)cc2)NC(=N)N([C@H](COC(=O)NC2(C(F)F)CC2)c2ccc(Cl)c(-c3ncnn3C(F)F)c2)C1=O)C(F)(F)F [Compound 5]
- IC50 (recombinant HIV protease; [28]): 4.5 nM
- EC50 [3]: 63.1 nM

Structure (SMILES): CC(C)(C[C@]1(c2ccc(-c3cccc(F)c3)cc2)NC(=N)N([C@H](COC(=O)NC2(C(F)F)CC2)c2ccc(Cl)c(-c3ncnn3C(F)F)c2)C1=O)C(F)(F)F [Compound 6]
- IC50 (recombinant HIV protease; [28]): 2.3 nM
- EC50 [3]: 50 nM

Structure (SMILES): CC(C)(C[C@]1(c2ccc(-c3cnn(C(F)F)c3)cc2)NC(=N)N([C@H](COC(=O)NC2(C(F)F)CC2)c2ccc(Cl)c(-c3ncnn3C(F)F)c2)C1=O)C(F)(F)F [Compound 7]
- IC50 (recombinant HIV protease; [28]): 1.8 nM
- EC95 [2]: 17.8 nM
- EC50 [3]: 7.8 nM
- Fold Change in EC50 [1, 4]: 3.62
- Fold Change in EC50 [1, 5]: 0.58
- Fold Change in EC50 [1, 6]: 3.51
- Fold Change in EC50 [1, 7]: 0.91
- Fold Change in EC50 [1, 8]: 1.08
- Fold Change in EC50 [1, 9]: 5.32
- Fold Change in EC50 [1, 10]: 2.57
- Fold Change in EC50 [1, 11]: 1.7
- Fold Change in EC50 [1, 12]: 0.72
- Fold Change in EC50 [1, 13]: 2.49
- Fold Change in EC50 [1, 14]: 2.9
- Fold Change in EC50 [1, 15]: 2.34
- Fold Change in EC50 [1, 16]: 9.22
- Fold Change in EC50 [1, 17]: 2.2
- Fold Change in EC50 [1, 18]: 5.84
- Fold Change in EC50 [1, 19]: 4.33
- Fold Change in EC50 [1, 20]: 0.82
- Fold Change in EC50 [1, 21]: 2.84
- Fold Change in EC50 [1, 22]: 3.92
- Fold Change in EC50 [1, 23]: 3.09
- Fold Change in EC50 [1, 24]: 2.6
- Fold Change in EC50 [1, 25]: 4.77
- Fold Change in EC50 [1, 26]: 1.39
- Fold Change in EC50 [1, 27]: 2.04
- mean fold change in susceptibility [1]: 2.4

Structure (SMILES): CC(C)(C[C@]1(c2ccc(-c3ccn(C(F)F)n3)cc2)NC(=N)N([C@H](COC(=O)NC2(C(F)F)CC2)c2ccc(Cl)c(-c3ncnn3C(F)F)c2)C1=O)C(F)(F)F [Compound 8, (S)-2-(4-chloro-3-(1-(difluoromethyl)-1H-1,2,4-triazol-5-yl)phenyl)-2-((R)-4-(4-(1-(difluoromethyl)-1H-pyrazol-3-yl)phenyl)-2-imino-5-oxo-4-(3,3,3-trifluoro-2,2-dimethylpropyl)imidazolidin-1-yl)ethyl (1-(difluoromethyl)cyclopropyl)carbamate]
- IC50 (recombinant HIV protease; [28]): 2 nM
- EC50 [3]: 8.4 nM

Structure (SMILES): CC(C)(C[C@]1(c2ccc(-c3cn(C(F)F)cn3)cc2)NC(=N)N([C@H](COC(=O)NC2(C(F)F)CC2)c2ccc(Cl)c(-c3ncnn3C(F)F)c2)C1=O)C(F)(F)F [Compound 9, (S)-2-(4-chloro-3-(1-(difluoromethyl)-1H-1,2,4-triazol-5-yl)phenyl)-2-((R)-4-(4-(1-(difluoromethyl)-1H-imidazol-4-yl)phenyl)-2-imino-5-oxo-4-(3,3,3-trifluoro-2,2-dimethylpropyl)imidazolidin-1-yl)ethyl (1-(difluoromethyl)cyclopropyl)carbamate]
- IC50 (recombinant HIV protease): 5.7 nM
- EC50 [3]: 26.3 nM

— patent US11318119B2 (Gilead Sciences, Inc., priority 2019, dated 2022)
